Assay [1] concerns the target T1, yeast AAC carrier 3 (yAAC3), mitochondrial ADP/ATP carrier (Saccharomyces cerevisiae, UniProt P18238). The assay is described as follows: ITC. The assay is classed as binding.
For assay [2], the target named is T1, yeast AAC carrier 3 (yAAC3), mitochondrial ADP/ATP carrier. The assay can be described thus: NMR chemical shift titration. In kind it is binding.

T1 sequence (P18238 whole entry): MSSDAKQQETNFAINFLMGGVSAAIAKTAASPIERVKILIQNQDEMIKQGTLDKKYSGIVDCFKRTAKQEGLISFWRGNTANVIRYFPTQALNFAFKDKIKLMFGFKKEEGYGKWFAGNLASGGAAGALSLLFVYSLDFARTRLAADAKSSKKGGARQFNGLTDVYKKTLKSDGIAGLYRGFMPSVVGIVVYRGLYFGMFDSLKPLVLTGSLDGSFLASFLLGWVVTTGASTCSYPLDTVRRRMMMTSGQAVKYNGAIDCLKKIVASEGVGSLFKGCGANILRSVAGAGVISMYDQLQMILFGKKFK

`C=C1[C@@H]2CC[C@H]3[C@]4(C)C[C@H](O[C@@H]5O[C@H](CO)[C@@H](OS(=O)(=O)O)[C@H](OS(=O)(=O)O)[C@H]5OC(=O)CC(C)C)CC(C(=O)O)(C(=O)O)[C@H]4CC[C@]3(C2)[C@H]1O` [CATR, carboxyatractyloside]: the affinity in assay [1], expressed as Kd, was 14.9 ± 9.6 µM.

Turning to `Nc1ncnc2c1ncn2[C@@H]1O[C@H](COP(=O)(O)OP(=O)(O)O)[C@@H](O)[C@H]1O` [ADP], in assay [2], the Kd was ~500 µM.

One may read the Kd as the equilibrium constant for the complex coming apart.

The record behind these values is paper PMC4527935 (Nature structural & molecular biology, 2015).
